From US20100105729A1, “ARYL-SUBSTITUTED HETEROCYCLIC PDE4 INHIBITORS AS ANTI-INFLAMMATORY AGENTS” (KALYPSYS, INC., priority 2006, published 2010)

Molecular target: T1, PDE4B (Homo sapiens, UniProt Q07343)
T1 construct: hexa-histidine (His6) (N); made in house
Assay: PDE4 IMAP Assay
Assay type: biochemical
Details: catalytic domain of PDE4B, fluorescence polarization
From the text: Compounds may be screened for functional potency in in vitro biochemical assays for their ability to inhibit the activity of phosphodiesterase (PDE) enzymes. A commercial PDE assay, Molecular Device's PDE IMAP assay, was modified and utilized to measure the inhibitory activity of compounds on PDE isoforms. The IMAP technology is based on the high affinity binding of phosphate by immobilized metal (MIII) coordination complexes on nanoparticles. This IMAP “binding reagent” complexes with phosphate groups on the nucleotide monophosphates generated in the reaction. Such binding causes a change in the rate of the molecular motion of the nucleotide, and results in an increase in the fluorescence polarization value observed for the fluorescent label attached to the substrate. PDE inhibitors prevent the generation of nucleotide monophosphates and the subsequent increase in polarization value observed for the fluorescent label attached to the substrate. The catalytic domain of PDE4B was fused to an amino-terminus hex-histadine affinity tag and purified. PDE4B enzyme was incubated with compounds for 10 minutes. Fluorescently labeled cyclic AMP substrates were then added to the PDE enzyme mix and incubated for 2 hours at room temperature. IMAP binding reagent was then added to the enzyme mix, incubated for 10-30 minutes and fluorescent polarization of the fluorescently labeled substrate was read either with the Perkin Elmer Viewlux or Molecular Devices Acquest or Analyst. Roflumilast and Rolipram are the positive controls used in the assay.

T1 sequence (Q07343 330-659 limits assumed, species assumed): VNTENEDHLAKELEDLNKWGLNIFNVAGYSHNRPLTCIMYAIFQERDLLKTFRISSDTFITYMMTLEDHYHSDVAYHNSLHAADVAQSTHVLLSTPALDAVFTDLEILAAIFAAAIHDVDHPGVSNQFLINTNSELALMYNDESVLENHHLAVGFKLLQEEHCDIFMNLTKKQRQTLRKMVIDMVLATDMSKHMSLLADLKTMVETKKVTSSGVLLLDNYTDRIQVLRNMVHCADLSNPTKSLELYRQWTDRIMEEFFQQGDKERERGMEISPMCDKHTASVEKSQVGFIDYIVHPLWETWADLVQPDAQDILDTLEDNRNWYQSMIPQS

SMILES	inhibition at 10 µM
COc1ccc(C2=NN(C(=O)c3ccccc3Cl)C(c3ccccc3Cl)C2)cc1OC (stereo not shown) [Example 35, (2-chlorophenyl)(5-(2-chlorophenyl)-3-(3,4-dimethoxyphenyl)-4,5-dihydro-1H-pyrazol-1-yl)methanone]	< 50%
COc1ccc(C2CC(c3ccc(OC)c(OC)c3)=NN2C(=O)c2ccccc2)cc1 (stereo not shown) [Example 36, (3-(3,4-dimethoxyphenyl)-5-(4-methoxyphenyl)-4,5-dihydro-1H-pyrazol-1-yl)(phenyl)methanone]	≥ 50%
COc1ccc(C2=NN(C(=O)c3ccccc3)C(c3ccc(N(C)C)cc3)C2)cc1OC (stereo not shown) [Example 37, (3-(3,4-dimethoxyphenyl)-5-(4-(dimethylamino)phenyl)-4,5-dihydro-1H-pyrazol-1-yl)(phenyl)methanone]	< 50%
COc1ccc(C2=NN(C(=O)c3cccs3)C(c3cccc(OC)c3OC)C2)cc1OC (stereo not shown) [Example 38, (5-(2,3-dimethoxyphenyl)-3-(3,4-dimethoxyphenyl)-4,5-dihydro-1H-pyrazol-1-yl)(thiophen-2-yl)methanone]	≥ 50%
COc1ccc(C2=NN(C(=O)c3cccs3)C(c3ccccc3Cl)C2)cc1OC (stereo not shown) [Example 39, (5-(2-chlorophenyl)-3-(3,4-dimethoxyphenyl)-4,5-dihydro-1H-pyrazol-1-yl)(thiophen-2-yl)methanone]	< 50%
COc1ccc(C2CC(c3ccc(OC)c(OC)c3)=NN2C(=O)c2cccs2)cc1 (stereo not shown) [Example 41, (3-(3,4-dimethoxyphenyl)-5-(4-methoxyphenyl)-4,5-dihydro-1H-pyrazol-1-yl)(thiophen-2-yl)methanone]	≥ 50%
COc1ccc(C2=NN(C(=O)c3cc(OC)c(OC)c(OC)c3)C(c3ccc(Cl)cc3)C2)cc1OC (stereo not shown) [Example 43, (5-(4-chlorophenyl)-3-(3,4-dimethoxyphenyl)-4,5-dihydro-1H-pyrazol-1-yl)(3,4,5-trimethoxyphenyl)methanone]	≥ 50%
COc1ccc(C2=NN(C(=O)c3cc(OC)c(OC)c(OC)c3)C(c3ccc(Br)cc3)C2)cc1OC (stereo not shown) [Example 44, (5-(4-bromophenyl)-3-(3,4-dimethoxyphenyl)-4,5-dihydro-1H-pyrazol-1-yl)(3,4,5-trimethoxyphenyl)methanone]	≥ 50%
COc1ccc(C2=NN(C(=O)c3cc(OC)c(OC)c(OC)c3)C(c3ccc(C)cc3)C2)cc1OC (stereo not shown) [Example 45, (3-(3,4-dimethoxyphenyl)-5-p-tolyl-4,5-dihydro-1H-pyrazol-1-yl)(3,4,5-trimethoxyphenyl)methanone]	≥ 50%
COc1ccc(C2=NN(C(=O)c3ccc(Br)o3)C(c3ccc(F)cc3)C2)cc1OC (stereo not shown) [Example 46, (5-bromofuran-2-yl)(3-(3,4-dimethoxyphenyl)-5-(4-fluorophenyl)-4,5-dihydro-1H-pyrazol-1-yl)methanone]	≥ 50%
COc1ccc(C2=NN(C(=O)c3ccc(Br)o3)C(c3ccc(Cl)cc3)C2)cc1OC (stereo not shown) [Example 47, (5-bromofuran-2-yl)(5-(4-chlorophenyl)-3-(3,4-dimethoxyphenyl)-4,5-dihydro-1H-pyrazol-1-yl)methanone]	≥ 50%
COc1ccc(C2=NN(C(=O)c3ccc(Br)o3)C(c3ccc(C)cc3)C2)cc1OC (stereo not shown) [Example 48, (5-bromofuran-2-yl)(3-(3,4-dimethoxyphenyl)-5-p-tolyl-4,5-dihydro-1H-pyrazol-1-yl)methanone]	≥ 50%
COc1ccc(C2=NN(C(=O)c3ccc(Br)o3)C(c3ccccc3F)C2)cc1OC (stereo not shown) [Example 49, (5-bromofuran-2-yl)(3-(3,4-dimethoxyphenyl)-5-(2-fluorophenyl)-4,5-dihydro-1H-pyrazol-1-yl)methanone]	≥ 50%
COc1ccc(C2=NN(C(=O)c3ccc(Br)o3)C(c3ccccc3Cl)C2)cc1OC (stereo not shown) [Example 50, (5-bromofuran-2-yl)(5-(2-chlorophenyl)-3-(3,4-dimethoxyphenyl)-4,5-dihydro-1H-pyrazol-1-yl)methanone]	< 50%
COc1ccc(C2=NN(C(=O)c3ccc(Br)o3)C(c3ccccc3)C2)cc1OC (stereo not shown) [Example 51, (5-bromofuran-2-yl)(3-(3,4-dimethoxyphenyl)-5-phenyl-4,5-dihydro-1H-pyrazol-1-yl)methanone]	≥ 50%
COc1ccc(C2=NN(S(=O)(=O)c3ccc(C)cc3)C(c3cccc([N+](=O)[O-])c3)C2)cc1OC (stereo not shown) [Example 52, 3-(3,4-dimethoxyphenyl)-5-(3-nitrophenyl)-1-tosyl-4,5-dihydro-1H-pyrazole]	< 50%
COc1ccc(C2=NN(S(=O)(=O)c3ccccc3)C(c3cccc([N+](=O)[O-])c3)C2)cc1OC (stereo not shown) [Example 53, 3-(3,4-dimethoxyphenyl)-5-(3-nitrophenyl)-1-(phenylsulfonyl)-4,5-dihydro-1H-pyrazole]	< 50%

SMILES	inhibition at 10 µM
COc1ccc(C2=NN(S(=O)(=O)c3ccccc3)C(c3ccc(F)cc3)C2)cc1OC (stereo not shown) [Example 54, 3-(3,4-dimethoxyphenyl)-5-(4-fluorophenyl)-1-(phenylsulfonyl)-4,5-dihydro-1H-pyrazole]	< 50%
COc1ccc(C2=NN(S(=O)(=O)c3ccc(C)cc3)C(c3ccc(F)cc3)C2)cc1OC (stereo not shown) [Example 55, 3-(3,4-dimethoxyphenyl)-5-(4-fluorophenyl)-1-tosyl-4,5-dihydro-1H-pyrazole]	< 50%
COc1ccc(C2=NN(S(=O)(=O)c3ccccc3)C(c3ccc(C)cc3)C2)cc1OC (stereo not shown) [Example 56, 3-(3,4-dimethoxyphenyl)-1-(phenylsulfonyl)-5-p-tolyl-4,5-dihydro-1H-pyrazole]	< 50%
COc1ccc(C2=NN(S(=O)(=O)c3ccc(C)cc3)C(c3ccc(C)cc3)C2)cc1OC (stereo not shown) [Example 57, 3-(3,4-dimethoxyphenyl)-5-p-tolyl-1-tosyl-4,5-dihydro-1H-pyrazole]	< 50%
COc1ccc(C2=NN(S(=O)(=O)c3ccccc3)C(c3ccccc3F)C2)cc1OC (stereo not shown) [Example 58, 3-(3,4-dimethoxyphenyl)-5-(2-fluorophenyl)-1-(phenylsulfonyl)-4,5-dihydro-1H-pyrazole]	< 50%
COc1ccc(C2=NN(S(=O)(=O)c3ccccc3)C(c3ccccc3Cl)C2)cc1OC (stereo not shown) [Example 59, 5-(2-chlorophenyl)-3-(3,4-dimethoxyphenyl)-1-(phenylsulfonyl)-4,5-dihydro-1H-pyrazole]	< 50%
COc1ccc(C2=NN(S(=O)(=O)c3ccc(C)cc3)C(c3ccccc3Cl)C2)cc1OC (stereo not shown) [Example 60, 5-(2-chlorophenyl)-3-(3,4-dimethoxyphenyl)-1-tosyl-4,5-dihydro-1H-pyrazole]	< 50%
COc1ccc(C2=NN(S(=O)(=O)c3ccccc3)C(c3ccccc3OC)C2)cc1OC (stereo not shown) [Example 61, 3-(3,4-dimethoxyphenyl)-5-(2-methoxyphenyl)-1-(phenylsulfonyl)-4,5-dihydro-1H-pyrazole]	< 50%
COc1ccc(C2=NN(S(=O)(=O)c3ccc(C)cc3)C(c3ccccc3)C2)cc1OC (stereo not shown) [Example 62, 3-(3,4-dimethoxyphenyl)-5-phenyl-1-tosyl-4,5-dihydro-1H-pyrazole]	< 50%
COc1ccc(C2=NN(S(=O)(=O)c3ccccc3)C(c3ccccc3)C2)cc1OC (stereo not shown) [Example 63, 3-(3,4-dimethoxyphenyl)-5-phenyl-1-(phenylsulfonyl)-4,5-dihydro-1H-pyrazole]	< 50%
COc1ccc(OC)c(C2CC(c3ccc(OC)c(OC)c3)=NN2C(=O)CCCC(=O)O)c1 (stereo not shown) [Example 64, 5-(5-(2,5-dimethoxyphenyl)-3-(3,4-dimethoxyphenyl)-4,5-dihydro-1H-pyrazol-1-yl)-5-oxopentanoic acid]	< 50%
COc1ccc(C2=NN(C(=O)CCCC(=O)O)C(c3ccc(F)cc3)C2)cc1OC (stereo not shown) [Example 65, 5-(3-(3,4-dimethoxyphenyl)-5-(4-fluorophenyl)-4,5-dihydro-1H-pyrazol-1-yl)-5-oxopentanoic acid]	< 50%
COc1ccc(C2CC(c3ccc(OC)c(OC)c3)=NN2C(=O)CCCC(=O)O)cc1 (stereo not shown) [Example 66, 5-(3-(3,4-dimethoxyphenyl)-5-(4-methoxyphenyl)-4,5-dihydro-1H-pyrazol-1-yl)-5-oxopentanoic acid]	< 50%
COc1ccc(C2=NN(C(=O)CCCC(=O)O)C(c3ccccc3Cl)C2)cc1OC (stereo not shown) [Example 67, 5-(5-(2-chlorophenyl)-3-(3,4-dimethoxyphenyl)-4,5-dihydro-1H-pyrazol-1-yl)-5-oxopentanoic acid]	< 50%
COc1ccc(C2=NN(C(=O)CCC(=O)O)C(c3ccc(OC)c(OC)c3)C2)cc1OC (stereo not shown) [Example 68, 4-(3,5-bis(3,4-dimethoxyphenyl)-4,5-dihydro-1H-pyrazol-1-yl)-4-oxobutanoic acid]	< 50%
COc1ccc(C2=NN(C(=O)CCC(=O)O)C(c3cccc(OC)c3OC)C2)cc1OC (stereo not shown) [Example 69, 4-(5-(2,3-dimethoxyphenyl)-3-(3,4-dimethoxyphenyl)-4,5-dihydro-1H-pyrazol-1-yl)-4-oxobutanoic acid]	< 50%
COc1ccc(C2=NN(C(=O)CCC(=O)O)C(c3ccc(Cl)cc3)C2)cc1OC (stereo not shown) [Example 70, 4-(5-(4-chlorophenyl)-3-(3,4-dimethoxyphenyl)-4,5-dihydro-1H-pyrazol-1-yl)-4-oxobutanoic acid]	< 50%
